Assay results taken from patent US12543738B2 (Bayer Aktiengesellschaft, priority 2020, dated 2026).

Columns and labels:
Septoria tritici = Septoria tritici in vitro cell test; assay type: cell-based; details: Zymoseptoria tritici, 168 h; 20 ppm of active ingredient; liquid culture, 7 days incubation; read-out: efficacy (inhibition of fungal growth)
Protocol: • Solvent: DMSO • Culture medium: 1 g KH2PO4 (VWR), 1 g K2HPO4 (VWR), 0.5 g Urea (VWR), 3 g KNO3 (Prolabo), 10 g saccharose (VWR), 0.5 g MgSO4, 7H2O (Sigma), 0.07 g CaCl2, 2H2O (Prolabo), 0.2 mg MnSO4, H2O (Sigma), 0.6 mg CuSO4, 5H2O (Sigma), 7.9 mg ZnSO4, 7H2O (Sigma), 0.1 mg H3BO3 (Merck), 0.14 mg NaMoO4, 2H2O (Sigma), 2 mg thiamine (Sigma), 0.1 mg biotine (VWR), 4 mg FeSO4, 7H2O (Sigma), QSP 1 liter • Inoculum: spore suspension Fungicides were solubilized in DMSO and the solution used to prepare the required range of concentrations. […] A spore suspension of S. tritici was prepared and diluted to the desired spore density. Fungicides were evaluated for their ability to inhibit spore germination and mycelium growth in liquid culture assay. The compounds were added in the desired concentration to the culture medium with spores. […] Inhibition of fungal growth was determined by comparing the absorbance values in wells containing the fungicides with the absorbance in control wells without fungicides.

Pyrenophora teres = assay: In vivo preventive test on Pyrenophora teres (net blotch on barley); details: 240 h, 500 ppm of active ingredient, preventive spray on barley, evaluated 10 days after inoculation, read-out: efficacy
Protocol: (§1) The active ingredients were made soluble and homogenized in a mixture of Dimethyl sulfoxide/Acetone//Tween® 80 and then diluted in water to the desired concentration. The young plants of barley were treated by spraying the active ingredient prepared as described above. Control plants were treated only with an aqueous solution of Acetone/Dimethyl sulfoxide/Tween® 80. After 24 hours, the plants were contaminated by spraying the leaves with an aqueous suspension of Pyrenophora teres spores.

[1] = Measurement of LogP values by HPLC on reversed phase columns (EEC directive 79/831 Annex V.A8); assay type: physicochemical; details: method [a]: LC-UV, acidic range, 0.1% formic acid in water and acetonitrile; compounds of formula (I-1), Table 1
Protocol: Calibration was done with straight-chain alkan2-ones (with 3 to 16 carbon atoms) with known LogP values (measurement of LogP values using retention times with linear interpolation between successive alkanones). Lambda-max-values were determined using UV-spectra from 200 nm to 400 nm and the peak values of the chromatographic signals

[2] = test system: Colletotrichum lindemuthianum; assay: In vivo preventive test on Colletotrichum lindemuthianum (leaf spot on bean); details: 168 h, 500 ppm of active ingredient, preventive spray on bean, evaluated 7 days after inoculation, read-out: efficacy
Protocol: as §1, with “bean” for “barley”, “Colletotrichum lindemuthianum” for “Pyrenophora teres”

Pyricularia Oryzae = assay: microbe, parasite or virus in culture; assay type: cell-based; details: 120 h, read-out: efficacy (inhibition of fungal growth)
Sphaerotheca fuliginea = assay: In vivo preventive test on Sphaerotheca fuliginea (powdery mildew on cucurbits); details: Podosphaera fuliginea, 192 h; 500 ppm of active ingredient; preventive spray on gherkin; evaluated 8 days after inoculation; read-out: efficacy
Protocol: as §1, with “gherkin” for “barley”, “Sphaerotheca fuliginea” for “Pyrenophora teres”

[3] = test system: Colletotrichum lindemuthianum; assay: Colletotrichum lindemuthianum in vitro cell test; assay type: cell-based; details: 144 h, 20 ppm of active ingredient, liquid culture, 6 days incubation, read-out: efficacy (inhibition of fungal growth)
Protocol: (§2) • Solvent: DMSO • Culture medium: 14.6 g anhydrous D-glucose (VWR), 7.1 g Mycological Peptone (Oxoid), 1.4 g granulated Yeast Extract (Merck), QSP 1 liter • Inoculum: spores suspension Fungicides were solubilized in DMSO and the solution used to prepare the required range of concentrations. […] A spore suspension of C. lindemuthianum was prepared and diluted to the desired spore density. Fungicides were evaluated for their ability to inhibit spores germination and mycelium growth in liquid culture assay. The compounds were added in the desired concentration to the culture medium with spores. After 6 days incubation, fungi-toxicity of compounds was determined by spectrometric measurement of mycelium growth. Inhibition of fungal growth was determined by comparing the absorbance values in wells containing the fungicides with the absorbance in control wells without fungicides.

Alternaria alternata = Alternaria alternata in vitro cell test; assay type: cell-based; details: 120 h, 20 ppm of active ingredient, liquid culture, 5 days incubation, read-out: efficacy (inhibition of fungal growth)
Protocol: as §2, with “of A. alternata” for “of C. lindemuthianum”, “inhibit spore” for “inhibit spores”, “After 5” for “After 6”

Botrytis cinerea = assay: In vivo preventive test on Botrytis cinerea (grey mould); details: 500 ppm of active ingredient, preventive spray on gherkin or cabbage, evaluated 4 to 5 days after inoculation, read-out: efficacy
Protocol: as §1, with “gherkin or cabbage” for “barley”, “Botrytis cinerea” for “Pyrenophora teres”

Alternaria brassicae = assay: In vivo preventive test on Alternaria brassicae (leaf spot on radish or cabbage); details: 144 h, 500 ppm of active ingredient, preventive spray on radish or cabbage, evaluated 6 days after inoculation, read-out: efficacy
Protocol: as §1, with “radish or cabbage” for “barley”, “Alternaria brassicae” for “Pyrenophora teres”

Fusarium culmorum = Fusarium culmorum in vitro cell test; assay type: cell-based; details: 96 h, 20 ppm of active ingredient, liquid culture, 4 days incubation, read-out: efficacy (inhibition of fungal growth)
Protocol: • Solvent: DMSO • Culture medium: 14.6 g anhydrous D-glucose (VWR), 7.1 g Mycological Peptone (Oxoid), 1.4 g granulated Yeast Extract (Merck), QSP 1 liter • Inoculum: spore suspension • Fungicides were solubilized in DMSO and the solution used to prepare the required range of concentrations. The final concentration of DMSO used in the assay was ≤1%.
A spore suspension of F. culmorum was prepared and diluted to the desired spore density.
Fungicides were evaluated for their ability to inhibit spore germination and mycelium growth in liquid culture assay. The compounds were added in the desired concentration to the culture medium with spores. After 4 days incubation, fungi-toxicity of compounds was determined by spectrometric measurement of mycelium growth. Inhibition of fungal growth was determined by comparing the absorbance values in wells containing the fungicides with the absorbance in control wells without fungicides.

| Compound | inhibition at 20 ppm (Septoria tritici) | pest or weed control at 500 ppm (Pyrenophora teres) | chromatographic logP [1] | pest or weed control at 500 ppm [2] | inhibition at 20 ppm (Pyricularia Oryzae) | pest or weed control at 500 ppm (Sphaerotheca fuliginea) | inhibition at 20 ppm [3] | inhibition at 20 ppm (Alternaria alternata) | pest or weed control at 500 ppm (Botrytis cinerea) | pest or weed control at 500 ppm (Alternaria brassicae) | inhibition at 20 ppm (Fusarium culmorum) |
| --- | --- | --- | --- | --- | --- | --- | --- | --- | --- | --- | --- |
| Cc1ccc(CC2CON=C(c3cc(C(C)O)nnc3Oc3cccc(C4CC4)c3)N2)c(C)c1 (stereo not shown) [Compound I-016, 1-{6-(3-cyclopropylphenoxy)-5-[5-(2,4-dimethylbenzyl)-5,6-dihydro-4H-1,2,4-oxadiazin-3-yl]pyridazin-3-yl}ethanol] | 90 to 100% | 80 to 89% | 3.55 | 90 to 100% | 90 to 100% | 90 to 100% | 90 to 100% | 90 to 100% | 90 to 100% | 90 to 100% |  |
| Cc1ccc(CC2CON=C(c3cc(C)nnc3Oc3cccc(C4(F)CC4)c3)N2)c(C)c1 (racemic) [Compound I-015, (5RS)-5-(2,4-dimethylbenzyl)-3-{3-[3-(1-fluorocyclopropyl)phenoxy]-6-methylpyridazin-4-yl}-5,6-dihydro-4H-1,2,4-oxadiazine] |  | 90 to 100% | 3.78 | 90 to 100% | 90 to 100% | 90 to 100% | 90 to 100% | 90 to 100% | 90 to 100% | 90 to 100% | 80 to 89% |
| C=C(OCC)c1cc(C2=NOCC(Cc3ccc(Cl)cc3Cl)N2)c(Oc2cccc(C3CC3)c2F)nn1 (racemic) [Compound I-020, (5RS)-3-[3-(3-cyclopropyl-2-fluorophenoxy)-6-(1-ethoxyvinyl)pyridazin-4-yl]-5-(2,4-dichlorobenzyl)-5,6-dihydro-4H-1,2,4-oxadiazine] | 90 to 100% | 90 to 100% | 5.41 | 90 to 100% | 90 to 100% | 90 to 100% | 90 to 100% | 90 to 100% | 90 to 100% | 90 to 100% |  |
| Cc1ccc(C)c(CC2CON=C(c3cc(C)nnc3Oc3cccc(C)c3F)N2)c1 (racemic) [Compound I-013, (5RS)-5-(2,5-dimethylbenzyl)-3-[3-(2-fluoro-3-methylphenoxy)-6-methylpyridazin-4-yl]-5,6-dihydro-4H-1,2,4-oxadiazine] | 90 to 100% | 80 to 89% | 3.69 | 90 to 100% | 80 to 89% | 90 to 100% | 90 to 100% | 90 to 100% | 90 to 100% | 90 to 100% |  |
| C=C(OCC)c1cc(C2=NOCC(Cc3ccc(Cl)cc3Cl)N2)c(Oc2cccc(C3CC3)c2)nn1 (racemic) [Compound I-019, (5RS)-3-[3-(3-cyclopropylphenoxy)-6-(1-ethoxyvinyl)pyridazin-4-yl]-5-(2,4-dichlorobenzyl)-5,6-dihydro-4H-1,2,4-oxadiazine] |  | 90 to 100% | 5.19 | 90 to 100% | 90 to 100% | 90 to 100% | 90 to 100% | 90 to 100% | 90 to 100% | 90 to 100% | 70 to 79% |
| CC(O)c1cc(C2=NOCC(Cc3ccc(Cl)cc3Cl)N2)c(Oc2cccc(C3CC3)c2F)nn1 (stereo not shown) [Compound I-023, 1-{6-(3-cyclopropyl-2-fluorophenoxy)-5-[5-(2,4-dichlorobenzyl)-5,6-dihydro-4H-1,2,4-oxadiazin-3-yl]pyridazin-3-yl}ethanol] |  | 90 to 100% | 3.87 | 90 to 100% | 90 to 100% | 90 to 100% | 90 to 100% | 90 to 100% | 90 to 100% | 90 to 100% | 90 to 100% |
| Cc1cc(C)cc(CC2CON=C(c3cc(C)nnc3Oc3cccc(Cl)c3)N2)c1 (racemic) [Compound I-009, (5RS)-3-[3-(3-chlorophenoxy)-6-methylpyridazin-4-yl]-5-(3,5-dimethylbenzyl)-5,6-dihydro-4H-1,2,4-oxadiazine] | 90 to 100% |  | 3.87 |  | 90 to 100% |  | 90 to 100% | 90 to 100% |  |  | 90 to 100% |
| Cc1cc(C)cc(CC2CON=C(c3cc(C)nnc3Oc3cccc(C)c3F)N2)c1 (racemic) [Compound I-008, (5RS)-5-(3,5-dimethylbenzyl)-3-[3-(2-fluoro-3-methylphenoxy)-6-methylpyridazin-4-yl]-5,6-dihydro-4H-1,2,4-oxadiazine] | 90 to 100% | 90 to 100% | 3.85 | 90 to 100% | 90 to 100% | 90 to 100% | 90 to 100% | 90 to 100% | 90 to 100% | 90 to 100% |  |
